Source: patent publication US4370327A, “Cephalosporins and pharmaceutical compositions” (Boehringer Ingelheim GmbH, priority 1980, dated 1983)
In brackets after ≈: the same amount, converted by molar mass.

Legend:
E. coli ATCC 11775 = assay: in vivo test against experimental intraperitoneal infection in mice; design: species or system E. coli in female mice of the NMRI strain; conditions: Escherichia coli, ATCC11775, sc, 168 h; subcutaneous, one treatment 1 hour after i.p. infection, observation 7 days; read-out: ED50 (dose at which 50% of the animals survived)
Description: A number of the compounds according to the invention were tested in vivo against experimental infections in mice. E. coli ATCC 11775 was used as the pathogenic bacteria. An intraperitoneal infection was produced with 0.2 ml of a bacterial suspension (with 5% mucin), which corresponds to about 1.4×10^6 E. coli bacteria per mouse. Female mice of the NMRI strain were divided up into groups of 10 animals. Two groups were untreated, and the other groups were treated with various doses of the cephalosporins according to the invention, administered subcutaneously, to determine the ED50 (does at which 50% of the animals survived). One treatment was administered 1 hour after the infection.
In both cases, the observation period was 7 days.

Prot. rettg. BC 17 = assay: serial dilution test in the microtiter system, minimum inhibitory concentration; assay type: cell-based, Proteus rettgeri; conditions: Providencia rettgeri, 37° C., 18 to 20 hours
Description: (§1) The tests were performed using the serial dilution test in the microtiter system. The effect of the text compounds on bacteriostasis was examined at the following concentrations: 128, 64, 32, 16, 8, 4, 2, 1, 0.5, 0.25, 0.12, 0.06, 0.03, and 0.015 μg/ml. The nutrient medium consisted of 10 gm of peptone, 8 g of meat extract oxoid, 3 g of sodium chloride, and 2 g of sec. sodium phosphate diluted with distilled water to […] (pH 7.2-7.4). The age of the primary cultures was approximately 20 hours. The standardization of the bacteria suspension was effected using a photometer according to the method of Eppendorf (test tube .phi. 14 mm, filter 546 nm), using for comparison a barium sulfate suspension formed by the addition of 3.0 ml of 1% barium chloride solution to 97 ml of 1% sulfuric acid. After the standardization, the test pathogens were diluted further in a ratio of 1:1500 with a common salt solution.
(§2) Sixteen milligrams of a particular test compound were put into a 10 ml measuring flask, and the flask was subsequently filled to the mark with solvent. Further dilutions in the series were made with distilled water or the appropriate solvent.
(§3) The cavities of the microtiter plates were filled sequentially with 0.2 ml of nutrient medium, 0.01 ml of the appropriate test compound solution, and then 0.01 ml of the standardized bacteria suspension. The bacteria were incubated at 37° C. for from 18 to 20 hours. Control tests using only the solvent were carried out simultaneously.
(§4) The measurement was carried out macroscopically to determine the minimum inhibitory concentration (the lowest, still bacteriostatically effective concentration).
(§5) The following test organisms were used:
(§6) Staphylococcus aureus SG 511, Escherichia coli ATCC 11 775, Pseudomonas aeruginosa Hamburgensis and Pseudomonas aeruginosa Walter, Serratia marcescens ATCC 13 880, Klebsiella pneumoniea ATCC 10 031 and BC 6, Proteus mirabilis BC 17, Proteus rettgeri BC 7, Enterobacter cloaceae ATCC 13 047, and E. coli R+TEM (β-lactamase carrier), and Klebsiella pneumoniae 1082 E (β-lactamase carrier).
(§7) Representative compounds of the compounds of Formula I were tested. Those representative compounds comprised sodium salts of compounds of Formula I wherein R, D, and Y had the meanings set forth in the following table: […]

[1] = test system: Klebsiella pneumoniea BC 6; assay: as above; assay type: cell-based, Klebsiella pneumoniae; conditions: BC6, Klebs. pneum. BC 6, 37° C., 18 to 20 hours
Description: as §1, §2, §3, §4, §5, §6, §7

[2] = test system: Klebsiella pneumoniea ATCC 10 031; assay: as above; assay type: cell-based, Klebsiella pneumoniae; conditions: Klebs. pneum. ATCC 10031, 37° C., 18 to 20 hours
Description: as §1, §2, §3, §4, §5, §6, §7

[3] = test system: Escherichia coli ATCC 11 775; assay: as above; assay type: cell-based; conditions: E. coli ATCC 11775, 37° C., 18 to 20 hours
Description: as §1, §2, §3, §4, §5, §6, §7

[4] = test system: Klebsiella pneumoniae 1082 E (β-lactamase carrier); assay: as above; assay type: cell-based; conditions: Klebs. pneum. 1082 E, 37° C., 18 to 20 hours
Description: as §1, §2, §3, §4, §5, §6, §7

[5] = test system: Pseudomonas aeruginosa Walter; assay: as above; assay type: cell-based; conditions: Pseud. aeru Walter, 37° C., 18 to 20 hours
Description: as §1, §2, §3, §4, §5, §6, §7

[6] = test system: Pseudomonas aeruginosa Hamburgensis; assay: as above; assay type: cell-based; conditions: Pseud. aeru Hbg., 37° C., 18 to 20 hours
Description: as §1, §2, §3, §4, §5, §6, §7

[7] = test system: Serratia marcescens ATCC 13 880; assay: as above; assay type: cell-based; conditions: Serr. marcesc. ATCC 13880, 37° C., 18 to 20 hours
Description: as §1, §2, §3, §4, §5, §6, §7

Proteus mirabilis BC 17 = assay: as above; assay type: cell-based; conditions: BC17, Prot. mir. BC 17, 37° C., 18 to 20 hours
Description: as §1, §2, §3, §4, §5, §6, §7

[8] = test system: Staphylococcus aureus SG 511; assay: as above; assay type: cell-based; conditions: SG511, St. aureus SG 511, 37° C., 18 to 20 hours
Description: as §1, §2, §3, §4, §5, §6, §7

[9] = test system: Enterobacter cloaceae ATCC 13 047; assay: as above; assay type: cell-based; conditions: Enterob. cloacae ATCC 13047, 37° C., 18 to 20 hours
Description: as §1, §2, §3, §4, §5, §6, §7

| SMILES | ED50 (E. coli ATCC 11775) [mg/kg] | MIC (Prot. rettg. BC 17) [µg/mL] | MIC [1] [µg/mL] | MIC [2] [µg/mL] | MIC [3] [µg/mL] | MIC [4] [µg/mL] | MIC [5] [µg/mL] | MIC [6] [µg/mL] | MIC [7] [µg/mL] | MIC (Proteus mirabilis BC 17) [µg/mL] | MIC [8] [µg/mL] | MIC [9] [µg/mL] |
| --- | --- | --- | --- | --- | --- | --- | --- | --- | --- | --- | --- | --- |
| CCN1CCN(C(=O)N[C@@H](C(=O)N[C@@H]2C(=O)N3C(C(=O)O)=C(CSc4nnnn4C)CS[C@H]23)c2ccc(O)cc2)C(=O)C1=O [Cefaperazone (T 1551), reference compound] | 3.1 |  |  |  |  |  |  |  |  |  |  |  |
| Cn1nnnc1SCC1=C(C(=O)O)N2C(=O)[C@@H](NC(=O)C(NC(=O)Nc3cnc(Nc4ccc(S(N)(=O)=O)cc4)nc3O)c3csc(N)n3)[C@H]2SC1 (some centres unmarked) [F] |  | 0.25 (≈ 0.316 µM) | 0.12 (≈ 0.152 µM) | 0.12 (≈ 0.152 µM) | 0.06 (≈ 0.0759 µM) | 64 (≈ 80.9 µM) | 16 (≈ 20.2 µM) | 16 (≈ 20.2 µM) | 0.5 (≈ 0.632 µM) | 0.25 (≈ 0.316 µM) | 1 (≈ 1.26 µM) | 0.5 (≈ 0.632 µM) |
| Cc1nnc(SCC2=C(C(=O)O)N3C(=O)[C@@H](NC(=O)Cn4cnnn4)[C@H]3SC2)s1 [Cefazoline, reference compound] |  | > 128 | 2 (≈ 4.4 µM) | 1 (≈ 2.2 µM) | 4 (≈ 8.8 µM) | > 128 | > 128 | > 128 | > 128 | 4 (≈ 8.8 µM) | 0.06 (≈ 0.132 µM) | > 128 |
| Cn1nnnc1SCC1=C(C(=O)O)N2C(=O)[C@@H](NC(=O)C(NC(=O)Nc3cnc(C4CC4)nc3O)c3csc(N)n3)[C@H]2SC1 (some centres unmarked) [A] | 0.5 | 0.12 (≈ 0.182 µM) | 0.06 (≈ 0.0908 µM) | 0.03 (≈ 0.0454 µM) | 0.03 (≈ 0.0454 µM) | 32 (≈ 48.4 µM) | 32 (≈ 48.4 µM) | 32 (≈ 48.4 µM) | 0.25 (≈ 0.378 µM) | 0.03 (≈ 0.0454 µM) | 1 (≈ 1.51 µM) | 0.5 (≈ 0.757 µM) |
| CO/N=C(\C(=O)N[C@@H]1C(=O)N2C(C(=O)O)=C(COC(N)=O)CS[C@H]12)c1ccco1 [Cefuroxime, reference compound] | > 100 | 2 (≈ 4.71 µM) | 4 (≈ 9.43 µM) | 2 (≈ 4.71 µM) | 8 (≈ 18.9 µM) |  | > 128 | > 128 | 8 (≈ 18.9 µM) | 0.5 (≈ 1.18 µM) | 1 (≈ 2.36 µM) | 32 (≈ 75.4 µM) |
| Cn1nnnc1SCC1=C(C(=O)O)N2C(=O)[C@@H](NC(=O)C(NC(=O)Nc3cnc(NC4CCC(O)CC4)nc3O)c3csc(N)n3)[C@H]2SC1 (some centres unmarked) [D] | < 0.3 | 0.12 (≈ 0.164 µM) | 0.06 (≈ 0.0818 µM) | 0.06 (≈ 0.0818 µM) | 0.06 (≈ 0.0818 µM) | 32 (≈ 43.6 µM) | 16 (≈ 21.8 µM) | 16 (≈ 21.8 µM) | 0.25 (≈ 0.341 µM) | 0.12 (≈ 0.164 µM) | 2 (≈ 2.73 µM) | 0.25 (≈ 0.341 µM) |
| Cn1nnnc1SCC1=C(C(=O)O)N2C(=O)[C@@H](NC(=O)C(NC(=O)Nc3cnc(NCc4ccc(O)cc4)nc3O)c3csc(N)n3)[C@H]2SC1 (some centres unmarked) [G] | < 0.2 | 0.06 (≈ 0.0809 µM) | 0.03 (≈ 0.0404 µM) | 0.06 (≈ 0.0809 µM) | 0.03 (≈ 0.0404 µM) | 16 (≈ 21.6 µM) | 8 (≈ 10.8 µM) | 16 (≈ 21.6 µM) | 0.12 (≈ 0.162 µM) | 0.03 (≈ 0.0404 µM) | 0.5 (≈ 0.674 µM) | 0.12 (≈ 0.162 µM) |
| Cn1nnnc1SCC1=C(C(=O)O)N2C(=O)[C@@H](NC(=O)C(NC(=O)Nc3cnc(NCCCO)nc3O)c3csc(N)n3)[C@H]2SC1 (some centres unmarked) [C] |  | 0.25 (≈ 0.36 µM) | 0.12 (≈ 0.173 µM) | 0.25 (≈ 0.36 µM) | 0.06 (≈ 0.0865 µM) | 32 (≈ 46.1 µM) | 32 (≈ 46.1 µM) | 32 (≈ 46.1 µM) | 0.25 (≈ 0.36 µM) | 0.06 (≈ 0.0865 µM) | 2 (≈ 2.88 µM) | 0.5 (≈ 0.721 µM) |
| CC(=O)OCC1=C(C(=O)O)N2C(=O)[C@@H](NC(=O)C(NC(=O)Nc3cnc(Nc4ccc(S(N)(=O)=O)cc4)nc3O)c3csc(N)n3)[C@H]2SC1 (some centres unmarked) [Compound E] | 0.1 to 0.3 | 0.12 (≈ 0.163 µM) | 0.06 (≈ 0.0817 µM) | 0.06 (≈ 0.0817 µM) | 0.03 (≈ 0.0408 µM) | 32 (≈ 43.6 µM) | 8 (≈ 10.9 µM) | 16 (≈ 21.8 µM) | 0.12 (≈ 0.163 µM) | 0.12 (≈ 0.163 µM) | 0.5 (≈ 0.68 µM) | 0.25 (≈ 0.34 µM) |
| CCCNc1ncc(NC(=O)NC(C(=O)N[C@@H]2C(=O)N3C(C(=O)O)=C(CSc4nnnn4C)CS[C@H]23)c2csc(N)n2)c(O)n1 (some centres unmarked) [B] |  | 0.12 (≈ 0.177 µM) | 0.06 (≈ 0.0885 µM) | 0.12 (≈ 0.177 µM) | 0.06 (≈ 0.0885 µM) | 16 (≈ 23.6 µM) | 32 (≈ 47.2 µM) | 32 (≈ 47.2 µM) | 0.25 (≈ 0.369 µM) | 0.06 (≈ 0.0885 µM) | 1 (≈ 1.48 µM) | 0.25 (≈ 0.369 µM) |
